Laboratory results from patent US9040747B2, “Method for producing reduced coenzyme Q10, method for stabilizing same, and composition comprising same” (Kaneka Corporation, priority 2009, dated 2015).

Assays:
[1] = Reduction of oxidized coenzyme Q10 by amino acid in Span 80/glycerin/Tween 80/MCT, HPLC proportion of reduced coenzyme Q10; settings: Span 80, glycerin, Tween 80, MCT, 80° C., 16 hours, nitrogen atmosphere; for Comparative Example 3: proportion of reduced coenzyme Q10: 6 equivalents amino acid; for Proportion of reduced coenzyme Q10: Example 2 / Comparative Example 1: 6 equivalents
Experimental: (§1) The purity of reduced coenzyme Q10 and the weight ratio of reduced coenzyme Q10 to oxidized coenzyme Q10 were determined by HPLC analysis in the Examples.
(§2) Column: […] C18 (Waters): 250 mm (length)×4.6 mm (inner diameter); mobile phase: C2H5OH:CH3OH=4:3 (v:v); detection wavelength: 210 nm; flow rate: 1 ml/min; retention time for reduced coenzyme Q10: 9.1 min.; retention time for oxidized coenzyme Q10: 13.3 min.
Crystalline oxidized coenzyme Q10 (0.3 g (i.e., 0.36 mmol)) and tryptophan (6 equivalents (i.e., 2.16 mmol)) were added to a liquid mixture of Span 80 (0.4 g), glycerin (0.3 g), Tween 80 (4.9 g), and MCT (1.4 g). The obtained mixture was stirred and heated at 80° C. for 16 hours under a nitrogen atmosphere.
Crystalline oxidized coenzyme Q10 (0.3 g (i.e., 0.36 mmol)) was added to a liquid mixture of Span 80 (0.4 g), glycerin (0.3 g), Tween 80 (4.9 g), and MCT (1.4 g). L-cysteine or N-acetylcysteine (6 equivalents (i.e., 2.16 mmol) each) was separately added thereto. The obtained mixtures were stirred and heated at 80° C. for 16 hours under a nitrogen atmosphere.
Crystalline oxidized coenzyme Q10 (0.3 g (i.e., 0.36 mmol)) was added to a liquid mixture of Span 80 (0.4 g), glycerin (0.3 g), Tween 80 (4.9 g), and MCT (1.4 g). One of the amino acids (6 equivalents (i.e., 2.16 mmol) each) listed in table 3 was separately added thereto. The obtained mixtures were stirred and heated at 80° C. for 16 hours under a nitrogen atmosphere.

[2] = Reduction of oxidized coenzyme Q10 by amino acid in condensed ricinoleate (CR-310)/MCT, HPLC proportion of reduced coenzyme Q10; settings: condensed ricinoleate (CR-310) and MCT, 80° C., 16 hours, nitrogen atmosphere; for Comparative Example 5: proportion of reduced coenzyme Q10: 6 equivalents amino acid
Experimental: as §1, §2
Crystalline oxidized coenzyme Q10 (0.3 g (i.e. 0.36 mmol)) and tryptophan (6 equivalents (i.e., 2.16 mmol)) were added to a liquid mixture of condensed ricinoleate (CR-310, Sakamoto Yakuhin Kogyo Co., Ltd.) (3.8 g) and MCT (3.8 g). The obtained mixture was stirred and heated at 80° C. for 16 hours under a nitrogen atmosphere. The reaction solution was analyzed by HPLC after the reaction.
Crystalline oxidized coenzyme Q10 (0.3 g (i.e., 0.36 mmol)) was added to a liquid mixture of condensed ricinoleate (CR-310, Sakamoto Yakuhin Kogyo Co., Ltd.) (3.8 g) and MCT (3.8 g). One of the amino acids (6 equivalents (i.e., 2.16 mmol) each) listed in table 3 was separately added thereto. The obtained mixtures were stirred and heated at 80° C. for 16 hours under a nitrogen atmosphere.

[3] = Reduction of oxidized coenzyme Q10 by amino acid in limonene, HPLC proportion of reduced coenzyme Q10; settings: 85° C., 16 hours, nitrogen atmosphere; for Comparative Example 4: proportion of reduced coenzyme Q10: 6 equivalents amino acid; for proportions of reduced coenzyme Q10: Example 3: 6 equivalents
Experimental: as §1, §2
Crystalline oxidized coenzyme Q10 (0.3 g (i.e. 0.36 mmol)) was added to limonene (4.5 g). Proline (6 equivalents (i.e., 2.16 mmol)) or serine (6 equivalents (i.e. 2.16 mmol)) was separately added thereto. The obtained mixtures were stirred and heated at 85° C. for 16 hours under a nitrogen atmosphere. The reaction solutions were analyzed by HPLC after the reaction.
Crystalline oxidized coenzyme Q10 (0.3 g (i.e., 0.36 mmol)) was added to limonene (4.5 g). One of the amino acids (6 equivalents (i.e., 2.16 mmol) each) listed in table 3 was separately added thereto. The obtained mixtures were stirred and heated at 85° C. for 16 hours under a nitrogen atmosphere.

[4] = Reduction of oxidized coenzyme Q10 by amino acid in ethanol, HPLC proportion of reduced coenzyme Q10; settings: 78° C., 16 hours, nitrogen atmosphere; for Comparative Example 2: proportion of reduced coenzyme Q10: 6 equivalents amino acid; for Proportion of reduced coenzyme Q10: Example 1: 6 equivalents amino acid
Experimental: as §1
Crystalline oxidized coenzyme Q10 (0.3 g (i.e., 0.36 mmol)) was added to ethanol (4.5 g). […] The obtained mixtures were stirred and heated at 78° C. for 16 hours under a nitrogen atmosphere.

Compound | Comparative Example 3: proportion of reduced coenzyme Q10 [1] [%] | Comparative Example 5: proportion of reduced coenzyme Q10 [2] [%] | Comparative Example 4: proportion of reduced coenzyme Q10 [3] [%] | Comparative Example 2: proportion of reduced coenzyme Q10 [4] [%] | Proportion of reduced coenzyme Q10 [4] [% by weight] | also measured
C[C@H](N)C(=O)O [Alanine] | 0 | 0 | 0 | 0 | – | –
N=C(N)NCCC[C@H](N)C(=O)O [Arginine] | – | – | – | – | 35 | –
NCC(=O)O [Glycine] | 0 | 1 | 0 | 0 | – | –
CC[C@H](C)[C@H](N)C(=O)O [Isoleucine] | 1 | 0 | 0 | 1 | – | –
N[C@@H](CS)C(=O)O [L-cysteine] | – | – | – | – | – | Proportion of reduced coenzyme Q10 [1]: 7% by weight
CC(=O)N[C@@H](CS)C(=O)O [N-acetylcysteine] | – | – | – | – | – | Proportion of reduced coenzyme Q10 [1]: 3% by weight
O=C(O)[C@@H]1CCCN1 [Proline] | – | – | – | – | 6 | proportions of reduced coenzyme Q10 [3]: 8 % by weight
N[C@@H](CO)C(=O)O [Serine] | – | – | – | – | 5 | proportions of reduced coenzyme Q10 [3]: 3 % by weight
N[C@@H](Cc1c[nH]c2ccccc12)C(=O)O [Tryptophan] | – | – | – | – | 21 | Proportion of reduced coenzyme Q10 [1]: 33% by weight; Proportion of reduced coenzyme Q10 ([2]; Example 4: 6 equivalents): 5 % by weight
CC(C)[C@H](N)C(=O)O [Valine] | 0 | 0 | 0 | 1 | – | –
Lysine•n hydrate | – | – | – | – | 69 | –
